Measured values published in paper PMC8350020, “Stepwise binding of inhibitors to human cytochrome P450 17A1 and rapid kinetics of inhibition of androgen biosynthesis” (The Journal of Biological Chemistry, 2021).
Where two headings read alike, the source gives them in different places.

Tests used:
human P450 17A1 [1] = details: cited from earlier work; for IC50: read-out: IC50, 17α-OH pregnenolone to DHEA (lyase)
human P450 17A1 [2] = details: read-out: IC50, progesterone 17α-hydroxylation, cited from earlier work
human P450 17A1 [3] = molecular target: T1, human P450 17A1 (Homo sapiens, UniProt P05093); test: Rates of onset of inhibition, pre-steady-state rapid chemical quench; assay type: biochemical
T1 sequence (P05093 24-508 limits assumed): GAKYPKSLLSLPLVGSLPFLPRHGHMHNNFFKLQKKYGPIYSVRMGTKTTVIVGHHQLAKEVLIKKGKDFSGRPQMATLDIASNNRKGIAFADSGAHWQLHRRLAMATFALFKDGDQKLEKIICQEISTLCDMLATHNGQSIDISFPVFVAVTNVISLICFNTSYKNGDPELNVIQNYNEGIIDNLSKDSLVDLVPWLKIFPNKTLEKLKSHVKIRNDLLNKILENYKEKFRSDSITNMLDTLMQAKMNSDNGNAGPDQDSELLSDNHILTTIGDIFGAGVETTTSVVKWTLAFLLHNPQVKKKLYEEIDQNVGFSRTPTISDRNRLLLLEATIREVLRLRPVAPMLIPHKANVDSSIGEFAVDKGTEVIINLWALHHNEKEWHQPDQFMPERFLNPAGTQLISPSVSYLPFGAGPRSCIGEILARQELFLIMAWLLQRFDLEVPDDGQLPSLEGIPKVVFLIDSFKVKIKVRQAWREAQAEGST
Procedure: In the control experiment, ES is not inhibited (no I present). […] Both progesterone 17α-hydroxylation (Fig. 10) and 17α-OH pregnenolone lyase activity (Fig. 11) were measured without and with all five inhibitors.
Reactions were performed using a KinTek RQF-3 rapid quench apparatus (KinTek) with the reaction loop set at position 7 and the temperature at 37 °C. The RQF-3 is a rapid mixing device that initiates a reaction by forcing equal volumes of two mixing syringes into a reaction loop. After pausing for the indicated incubation time, the reaction is then quenched and expelled from the apparatus. The reaction mixture (containing enzyme and substrate [in CH3OH, 1% (v/v)]) was initiated with an equal volume (19 μl) of NADPH solution (2 mM), effectively halving the initial concentration of all reaction components. When appropriate, inhibitor (in CH3OH) was added to the NADPH solution (in CH3OH), taking care to keep the total CH3OH composition of the final reaction to 1% (v/v). The substrates progesterone (5 μM) and 17α-OH pregnenolone (1.5 μM) were allowed to react for different lengths of time (0.1–5 and 2–60 s, respectively) prior to quenching with 160 μl of 1 M HCl. Five replicates of each time point were collected into vials to increase the detection sensitivity of the respective product at the shorter time points.

human P450 17A1 [4] = molecular target: T1, human P450 17A1; test: IC50 determination, 17α-OH pregnenolone lyase activity (DHEA formation), reconstituted P450 17A1/POR/b5; assay type: biochemical; details: for Ki: IC50 = Ki [1 + (S/Km)] for competitive inhibition, Km from Ref. 37, read-out: Predicted Ki, 17α-OH pregnenolone lyase; for Ratio (17-hydroxylation/lyase) of IC50: This work
Procedure: In the case of catalytic assays, the products of each reaction were redissolved in a solution of CF3CO2H (7 mM, prepared as a 0.1% v/v solution in C2H5OH) and dansyl hydrazine (10 mM, prepared in CH3OH) in amber glass vials (sealed and capped) and were allowed to react overnight (16 h) in the dark at room temperature (23 °C). The reaction was quenched with acetone (50 mM) followed by incubation at room temperature for 30 min. NaOH was added to 100 mM, and the products of the reactions were extracted into CH2Cl2 (1.0 ml), of which 0.8 ml of the organic (lower) layers was transferred to fresh amber vials and dried under a stream of nitrogen. The residues were redissolved in a mixture of a 0.1% HCO2H solution (aqueous) and CH3CN (0.1 ml; 1:1 dilution, v/v) and transferred to ultra performance LC (UPLC) vials for analysis. […] Data were processed using MassLynx software (Waters) (Fig. S5).
(§1) A 0.5 ml reaction was prepared in most cases by the reconstitution of P450 17A1 (0.02 μM), POR (0.5 μM), and b5 (0.5 μM) with freshly sonicated L-α-dilauroyl-sn-glycero-3-phosphocholine (30 μM). The mixture incubated on ice for 10 min, followed by the addition of potassium phosphate buffer (to a final concentration of 50 mM), substrate (5 μM progesterone or 1.5 μM 17α-OH pregnenolone ([37])), and water. Stock progesterone was prepared in CH3OH and was diluted to a final concentration of 5 μM (0.5% CH3OH, v/v). […] Reactions (in duplicate) were preincubated for 5 min at 37 °C with shaking before being initiated with an NADPH-generating system composed of 0.5 mM NADP^+, two units of yeast glucose 6-phosphate dehydrogenase ml^−1, and 10 mM glucose 6-phosphate ([56]). The inhibitor abiraterone was added immediately prior to the 5-min preincubation stage because of the rapid onset of inhibition. Reactions (5 min) were quenched by immersion in an ice bath, with the addition of CH2Cl2 (2.0 ml), and were centrifuged (10^3g, 10 min) to separate layers. The organic (bottom) phases were removed (1.6 ml) and transferred into clean vials, and the solvent was removed under a stream of nitrogen. Reactions were resuspended in a CH3CN/sodium acetate mixture (25 mM, pH 3.7) (1:1, v/v) and were transferred to vials for UPLC analysis. […] Substrate and product were detected using a Waters Acuity photodiode array system at 240 nm. Data were processed using the MassLynx software, and percent conversion of substrate to product was calculated. The data were normalized to the uninhibited reaction, which was set at 100% activity.
Experimental conditions for the lyase reaction were identical to the hydroxylation reaction with the following exceptions: 17α-OH pregnenolone (1.5 μM) was used as the substrate, and following extraction, the product of the reaction was derivatized with dansyl hydrazine as described previously.

human P450 17A1 [5] = molecular target: T1, human P450 17A1; test: IC50 determination, progesterone 17α-hydroxylation (17α-OH progesterone formation), reconstituted P450 17A1/POR/b5; assay type: biochemical; details: for IC50: IC50 (95% CI limits), progesterone 17α-hydroxylation, steady-state, 0.02 μM P450 17A1, 5 μM progesterone, 37 °C; for Ki: IC50 = Ki [1 + (S/Km)] for competitive inhibition, Km from Ref. 37, read-out: Predicted Ki, progesterone 17α-hydroxylation
Procedure: as §1

human P450 17A1 [6] = molecular target: T2, human P450 17A1 (Homo sapiens, UniProt P05093); test: Inhibition as a function of preincubation time with abiraterone, CYP17A1R Bactosomes; assay type: biochemical; details: 50 nM abiraterone, 10 nM P450 17A1 Bactosomes
T2 sequence (P05093 1-508): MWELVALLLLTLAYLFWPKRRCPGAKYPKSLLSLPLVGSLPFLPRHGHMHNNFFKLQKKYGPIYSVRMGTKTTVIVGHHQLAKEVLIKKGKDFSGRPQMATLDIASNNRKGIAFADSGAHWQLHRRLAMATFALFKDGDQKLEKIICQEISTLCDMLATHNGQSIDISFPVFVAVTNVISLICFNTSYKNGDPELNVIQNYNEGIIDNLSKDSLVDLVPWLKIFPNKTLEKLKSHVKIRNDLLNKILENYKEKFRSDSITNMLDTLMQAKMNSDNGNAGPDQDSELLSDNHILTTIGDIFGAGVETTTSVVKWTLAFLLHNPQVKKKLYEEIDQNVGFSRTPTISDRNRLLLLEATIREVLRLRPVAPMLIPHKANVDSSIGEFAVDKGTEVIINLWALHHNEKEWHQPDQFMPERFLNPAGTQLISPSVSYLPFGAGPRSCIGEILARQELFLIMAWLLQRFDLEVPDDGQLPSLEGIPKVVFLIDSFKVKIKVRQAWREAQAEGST
Procedure: These experiments utilized bacterial membranes (CYP17A1R Bactosomes) as the source of P450 and POR. Experiments were done with 10 nM P450 17A1 in reaction volumes of 0.5 ml, with 100 nM b5 added. Abiraterone was added to 50 nM, and then, the reactions were initiated by the addition of an NADPH-generating system supplemented with either 20 μM progesterone (A) or 17α-OH pregnenolone (B) at the indicated times and proceeded for 5 min (at 37 and 23 °C, respectively).
Steady-state kinetic inhibition assays performed with Cypex CYP17A1R Bactosomes followed largely the same procedure with the following exception: the enzymatic system was prepared by preincubating (23 °C) P450 17A1 (CYP17A1R Bactosomes; 10 nM P450), b5 (100 nM), and potassium phosphate buffer (50 mM, pH 7.4) with abiraterone (50 nM) for varying lengths of time (0.25–30 min). Reactions (5 min) were then initiated with the NADPH-generating system described previously and subjected to the same procedure.

P450 17A1 = details: cited from earlier work
human P450 17A1 [7] = molecular target: T1, human P450 17A1; test: KinTek Explorer modeling of kinetics of inhibition of progesterone 17α-hydroxylation; assay type: biochemical; details: fit of Figure 10E data; E 2 μM, S 5 μM progesterone, I 1 μM; read-out: Kd as a competitive inhibitor (value giving adequate model fits)
Procedure: The results of the progesterone 17α-hydroxylation abiraterone inhibition experiment in Figure 10E were analyzed further using KinTek Explorer software (KinTek; Fig. 13).
The lines were fit to the model shown, with the indicated rate and dissociation constants. The enzyme concentration (E) was 2 μM, substrate concentration (S) was 5 μM, and inhibitor concentration (I, abiraterone) was 1 μM. Fitting was done with KinTek Explorer.

human P450 17A1 [8] = molecular target: T1, human P450 17A1
human P450 17A1 [9] = molecular target: T1, human P450 17A1; details: 250 nM P450 17A1 and 250 nM inhibitor, 23 °C
[10] = IC50 (95% CI limits), 17α-OH pregnenolone lyase, steady-state, 0.02 μM P450 17A1, 1.5 μM 17α-OH pregnenolone, 37 °C
[11] = range of other studies, ref Other studies (2) Petrunak et al. 2017

IC50 (human P450 17A1 [4]; [10]) [µM]	Ki (human P450 17A1 [4]) [µM]	Ratio (17-hydroxylation/lyase) of IC50 (human P450 17A1 [4])	IC50 (human P450 17A1 [5]) [µM]	Ki (human P450 17A1 [5]) [µM]	Compound	Ratio (17-hydroxylation/lyase) of IC50 (human P450 17A1 [1]; ref (2) Petrunak et al. 2017)	IC50 (human P450 17A1 [1]; ref (2) Petrunak et al. 2017) [µM]	IC50 (human P450 17A1 [2]; ref (2) Petrunak et al. 2017) [µM]	also measured
–	–	–	–	–	CC(C)[C@@](O)(c1ccc2cc(OC(F)F)c(OC(F)F)cc2c1)c1cn[nH]n1 [(R)-Seviteronel]	2.3	5	11.3	–
0.0042	0.0034	0.76	0.0032	0.0013	C[C@]12CC[C@H](O)CC1=CC[C@@H]1[C@@H]2CC[C@]2(C)C(c3cccnc3)=CC[C@@H]12 [Abiraterone, 17-(3-pyridyl)androsta-5,16-dien-3β-ol]	2.1	0.036	0.076	Time within which inhibition occurred (human P450 17A1 [3]; Figs. 10, 11 and 13): less than 1 s; Earliest time points at which inhibition was noted (human P450 17A1 [3]; progesterone 17α-hydroxylation, 1 μM abiraterone, 2 μM P450): ≤ 100 ms; Ratio (17-hydroxylation/lyase) of IC50 (human P450 17A1 [1]; [11]): 0.1-1.4; IC50 (human P450 17A1 [1]; [11]): 0.0029 to 0.8 µM; Inhibition of 17α-OH pregnenolone lyase versus preincubation time (human P450 17A1 [6]; 100 nM b5, 20 μM 17α-OH pregnenolone, 23 °C): almost completely inhibited after 15 s; Inhibition of progesterone 17α-hydroxylation versus preincubation time (human P450 17A1 [6]; 100 nM b5, 20 μM progesterone, 37 °C): almost completely inhibited after 15 s; koff (P450 17A1): 0.000155 s⁻¹; t1/2 (from koff) (P450 17A1): 5 h; Kd (human P450 17A1 [7]): 0.001 µM; Further spectral changes after formation of final complex (human P450 17A1 [8]; 2 μM P450 17A1 and 2 μM abiraterone, spectra 1 to 57 min after mixing): no further spectral changes were observed over a period of 1 h
0.099	0.081	0.61	0.06	0.023	Clc1ccccc1C(c1ccccc1)(c1ccccc1)n1ccnc1 [Clotrimazole]	–	–	–	Ratio (17-hydroxylation/lyase) of IC50 (human P450 17A1 [1]; ref (5) Munkboel et al. 2019): 3.3; IC50 (human P450 17A1 [1]; ref (5) Munkboel et al. 2019): 0.056 µM; IC50 (human P450 17A1 [2]; ref (5) Munkboel et al. 2019): 0.18 µM; Lag in recovery of 17α-OH pregnenolone lyase from 1:1 inhibitor complex (human P450 17A1 [9]; 20 μM 17α-OH pregnenolone): Any suggestion of lags is no greater than in the uninhibited reactions; Lag in recovery of progesterone 17α-hydroxylation from 1:1 inhibitor complex (human P450 17A1 [9]; 20 μM progesterone): Any suggestion of lags is no greater than in the uninhibited reactions; Time required for completion of spectral changes on binding (human P450 17A1 [8]; 2 μM P450 17A1 mixed with inhibitor, 23 °C): ~30 s
–	–	–	–	–	C[C@]12CC[C@H](O)CC1=CC[C@@H]1[C@@H]2CC[C@]2(C)C(n3cnc4ccccc43)=CC[C@@H]12 [Galaterone]	1.3	0.1	0.13	–
3.43	2.81	1.0	3.5	1.37	CC(C)[C@](O)(c1ccc2cc(OC(F)F)c(OC(F)F)cc2c1)c1c[nH]nn1 [Seviteronel, (S)-Seviteronel]	2.7	0.43	1.17	IC50 (human P450 17A1 [4]; This work (Fig. 3, Table 1), read-out: IC50, 17α-OH pregnenolone to DHEA (lyase)): 3.4 µM; Ratio (17-hydroxylation/lyase) of IC50 (human P450 17A1 [1]; ref (4) Rafferty et al. 2014): 10; IC50 (human P450 17A1 [1]; ref (4) Rafferty et al. 2014): 0.069 µM; IC50 (human P450 17A1 [2]; ref (4) Rafferty et al. 2014): 0.69 µM
–	–	–	–	–	CC(C)(C)NC(=O)[C@@H]1CN(Cc2cccnc2)CCN1C[C@@H](O)C[C@@H](Cc1ccccc1)C(=O)N[C@H]1c2ccccc2C[C@H]1O [indinavir]	–	–	–	Spectral interaction with P450 17A1 (human P450 17A1 [8]): did not show strong enough spectral interaction
–	–	–	–	–	CCC(C)n1ncn(-c2ccc(N3CCN(c4ccc(OCC5COC(Cn6cncn6)(c6ccc(Cl)cc6Cl)O5)cc4)CC3)cc2)c1=O (stereo not shown) [itraconazole]	–	–	–	Spectral interaction with P450 17A1 (human P450 17A1 [8]): did not show strong enough spectral interaction
